Measured values taken from patent publication US20090247624A1, “FORMULATIONS OF RADIOPROTECTIVE ALPHA BETA UNSATURATED ARYL SULFONES” (Onconova Therapeutics Inc., priority 2006, published 2009).

Experiments:
HFL-1 cells = assay: Radioprotective effects on cultured normal cells (colony count); assay type: cell-based, human; details: 2.5 to 20 micromolar for 24 hrs before 10 Gy or 15 Gy; colonies on test plates / control plates
Description: HFL-1 cells, which are normal diploid lung fibroblasts, were plated into 24 well dishes at a cell density of 3000 cells per 10 mm^2 in DMEM completed with 10% fetal bovine serum and antibiotics. The test compounds listed in Table 11 were added to the cells 24 hours later in select concentrations from 2.5 to 20 micromolar, inclusive, using DMSO as a solvent. Control cells were treated with DMSO alone. The cells were exposed to the test compound or DMSO for 24 hrs. The cells were then irradiated with either 10 Gy (gray) or 15 Gy of ionizing radiation (IR) using a J. L. Shepherd Mark I, Model 30-1 Irradiator equipped with ^137cesium as a source.
After irradiation, the medium on the test and control cells was removed and replaced with fresh growth medium without the test compounds or DMSO. The irradiated cells were incubated for 96 hours and duplicate wells were trypsinized and replated onto 100 mm^2 tissue culture dishes. The replated cells were grown under normal conditions with one change of fresh medium for 3 weeks. The number of colonies from each 100 mm^2 culture dish, which represents the number of surviving cells, was determined by staining the dishes as described below.
To visualize and count the colonies derived from the clonal outgrowth of individual radioprotected cells, the medium was removed and the plates were washed one time with room temperature phosphate buffered saline. The cells were stained with a 1:10 diluted Modified Giemsa staining solution (Sigma) for 20 minutes. The stain was removed, and the plates were washed with tap water. The plates were air dried, the number of colonies from each plate were counted and the average from duplicate plates was determined.
A “+” indicates radioprotective activity of between 2- and 4.5-fold at the concentrations tested. Fold protection was determined by dividing the average number of colonies from the test plates by the average number of colonies on the control plates.

C57 black mice = assay: Protection of mice from radiation toxicity by pre-treatment; assay type: in vivo
Description: C57 black mice age 10-12 weeks (Taconic) were divided into two treatment groups of 10 mice each. One group, designated the “200×2” group, received intraperitoneal injections of 200 micrograms (E)-4-carboxystyryl-4-chlorobenzylsulfone dissolved in DMSO (a 10 mg/Kg dose, based on 20 g mice) 18 and 6 hours before irradiation with 8 Gy gamma radiation. The other group, designated “500×2,” received intraperitoneal injections of 500 micrograms (E)-4-carboxystyryl-4-chlorobenzylsulfone dissolved in DMSO (a 25 mg/Kg dose, based on 20 g mice) 18 and 6 hours before irradiation with 8 Gy gamma radiation. A control group of 16 animals received 8 Gy gamma radiation alone.

[1] = room temperature; cited from earlier work
rodent species = details: after IP and IV administration to different rodent species; cited from earlier work
human = details: approximately 500 mg/kg iv continuously as 5 percent aqueous solution, one individual, four days; cited from earlier work
[2] = “200×2” group: 10 mg/Kg i.p. 18 and 6 hours before 8 Gy gamma radiation
[3] = “500×2” group: 25 mg/Kg i.p. 18 and 6 hours before 8 Gy gamma radiation

## O=S(=O)(/C=C/c1ccc(F)cc1)Cc1ccc(Cl)cc1 [Compound 1, (E)-4-Fluorostyryl-4-chlorobenzylsulfone]
HFL-1 cells
  Activity (radioprotection, fold protection): + (A “+” indicates radioprotective activity of between 2- and 4.5-fold at the concentrations tested)

## O=S(=O)(/C=C\c1ccc(F)cc1)Cc1ccc(Cl)cc1 [Compound 7, (Z)-4-Fluorostyryl-4-chlorobenzylsulfone]
HFL-1 cells
  Activity (radioprotection, fold protection): + (A “+” indicates radioprotective activity of between 2- and 4.5-fold at the concentrations tested)

## O=S(=O)(/C=C/c1ccoc1)Cc1ccc(Cl)cc1Cl [Compound 8, (E)-3-Furanethenyl-2,4-dichlorobenzylsulfone]
HFL-1 cells
  Activity (radioprotection, fold protection): + (A “+” indicates radioprotective activity of between 2- and 4.5-fold at the concentrations tested)

## O=C(O)c1ccc(/C=C/S(=O)(=O)Cc2ccc(Cl)cc2)cc1 [Compound 13, (E)-4-Carboxystyryl-4-chlorobenzylsulfone]
HFL-1 cells
  Activity (radioprotection, fold protection): + (A “+” indicates radioprotective activity of between 2- and 4.5-fold at the concentrations tested)
C57 black mice; [2]
  maximum mortality rate by day 40: approximately 60%
  mice dead at day 20: about 50%
C57 black mice; [3]
  maximum mortality rate by day 40: about 50%
  mice dead at day 20: about 30%

## (E)-2,4,6-Trimethoxystyryl-4-methoxybenzylsulfone [Compound 2]
HFL-1 cells
  Activity (radioprotection, fold protection): + (A “+” indicates radioprotective activity of between 2- and 4.5-fold at the concentrations tested)

## (E)-4-Fluorostyryl-4-chlorophenylsulfone [Compound 10]
HFL-1 cells
  Activity (radioprotection, fold protection): + (A “+” indicates radioprotective activity of between 2- and 4.5-fold at the concentrations tested)

## (E)-4-Fluorostyryl-4-cyanobenzylsulfone [Compound 6]
HFL-1 cells
  Activity (radioprotection, fold protection): + (A “+” indicates radioprotective activity of between 2- and 4.5-fold at the concentrations tested)

## (E)-4-Fluorostyryl-4-trifluoromethylbenzylsulfone [Compound 5]
HFL-1 cells
  Activity (radioprotection, fold protection): + (A “+” indicates radioprotective activity of between 2- and 4.5-fold at the concentrations tested)

## (Z)-Styryl-(E)-2-methoxy-4-ethoxystyrylsulfone [Compound 11]
HFL-1 cells
  Activity (radioprotection, fold protection): + (A “+” indicates radioprotective activity of between 2- and 4.5-fold at the concentrations tested)

## Hydroxypropyl-B-Cyclodextrin [HPCD]
[1]
  solubility in water: greater than 500 mg/ml
Rodent species
  toxicity: non-toxic
human
  adverse clinical effects: no adverse clinical effects were reported
